Assay results reported in ChEMBL document CHEMBL1140437, “N-substituted cis-4a-(3-hydroxyphenyl)-8a-methyloctahydroisoquinolines are opioid receptor pure antagonists” (J Med Chem, 2005).

Key:
[1] = biological target: Opioid receptors; mu & kappa (Homo sapiens) (UniProt P41145+P35372); experiment: Selectivity for cloned human mu opioid receptor over kappa opioid receptor; format: protein assay
[2] = biological target: Mu-type opioid receptor (Homo sapiens) (UniProt P35372)
Description: Inhibition of DAMGO stimulated [35S]GTP-gamma-S binding to cloned human mu opioid receptor

[3] = biological target: Opioid receptors; delta & kappa (Homo sapiens) (UniProt P41145+P41143); experiment: Selectivity for cloned human delta opioid receptor over kappa opioid receptor; format: protein assay
Chain of Opioid receptors; delta & kappa (Homo sapiens) (P41143 whole entry, looked up): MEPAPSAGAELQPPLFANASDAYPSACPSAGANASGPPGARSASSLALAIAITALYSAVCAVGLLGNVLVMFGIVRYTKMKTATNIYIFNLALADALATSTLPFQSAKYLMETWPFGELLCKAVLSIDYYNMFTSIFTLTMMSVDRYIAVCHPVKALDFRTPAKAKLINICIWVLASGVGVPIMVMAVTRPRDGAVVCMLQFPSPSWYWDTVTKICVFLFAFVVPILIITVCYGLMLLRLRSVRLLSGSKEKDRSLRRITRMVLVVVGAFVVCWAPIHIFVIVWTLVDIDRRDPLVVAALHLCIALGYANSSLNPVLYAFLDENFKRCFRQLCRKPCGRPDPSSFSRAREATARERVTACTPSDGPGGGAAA
Chain of Opioid receptors; delta & kappa (Homo sapiens) (P41145 whole entry, looked up): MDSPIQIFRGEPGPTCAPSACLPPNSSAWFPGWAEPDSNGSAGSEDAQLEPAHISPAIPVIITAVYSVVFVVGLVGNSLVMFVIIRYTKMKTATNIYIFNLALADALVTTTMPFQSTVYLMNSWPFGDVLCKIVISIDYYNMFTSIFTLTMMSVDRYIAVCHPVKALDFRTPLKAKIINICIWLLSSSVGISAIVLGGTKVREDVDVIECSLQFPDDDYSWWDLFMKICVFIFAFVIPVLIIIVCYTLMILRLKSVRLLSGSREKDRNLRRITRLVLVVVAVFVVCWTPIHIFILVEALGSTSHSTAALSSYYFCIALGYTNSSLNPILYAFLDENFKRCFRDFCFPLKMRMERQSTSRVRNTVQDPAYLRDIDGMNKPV

[4] = biological target: Kappa-type opioid receptor (Homo sapiens) (UniProt P41145)
Chain of Kappa-type opioid receptor (Homo sapiens) (P41145 whole entry): as the sequence (P41145 whole entry, looked up) above
Description: Inhibition of U69,593 stimulated [35S]GTP-gamma-S binding to cloned human kappa opioid receptor

[5] = biological target: Delta-type opioid receptor (Homo sapiens) (UniProt P41143)
Chain of Delta-type opioid receptor (Homo sapiens) (P41143 whole entry): as the sequence (P41143 whole entry, looked up) above
Description: Inhibition of DPDPE stimulated [35S]GTP-gamma-S binding to cloned human delta opioid receptor

Chain of Opioid receptors; mu & kappa (Homo sapiens) (P35372 whole entry, looked up): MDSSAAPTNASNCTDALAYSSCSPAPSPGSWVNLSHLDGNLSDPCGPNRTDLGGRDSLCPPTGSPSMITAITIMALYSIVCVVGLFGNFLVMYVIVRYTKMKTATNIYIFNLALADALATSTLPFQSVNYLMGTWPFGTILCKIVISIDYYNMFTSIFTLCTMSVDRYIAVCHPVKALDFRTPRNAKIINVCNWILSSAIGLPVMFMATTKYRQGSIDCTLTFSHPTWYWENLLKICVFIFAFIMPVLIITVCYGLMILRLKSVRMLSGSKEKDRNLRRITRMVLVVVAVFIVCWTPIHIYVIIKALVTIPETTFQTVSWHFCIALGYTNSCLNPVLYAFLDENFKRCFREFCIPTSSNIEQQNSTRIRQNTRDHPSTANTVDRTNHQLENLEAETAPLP
Chain of Opioid receptors; mu & kappa (Homo sapiens) (P41145 whole entry, looked up): as the sequence (P41145 whole entry, looked up) above
Chain of Mu-type opioid receptor (Homo sapiens) (P35372 whole entry): as the sequence (P35372 whole entry, looked up) above

Row | Structure (SMILES) | Ratio Ke [1] | Ke [2] [nM] | Ratio Ke [3] | Ke [4] [nM] | Ke [5] [nM]
1 | CN1CC[C@]2(c3cccc(O)c3)CCCC[C@]2(C)C1 | 29 | 99.4 | 141 | 3.37 | 477
2 | C[C@H]1CN(CC[C@H](O)C2CCCCC2)CC[C@@]1(C)c1cccc(O)c1 | – | 0.1 | – | – | 0.6
3 | C[C@]12CC[C@@H](NC(=O)C3(c4ccccc4)CCCC3)C[C@@]1(c1cccc(O)c1)CCN(CCCc1ccccc1)C2 | 0.8 | 1.46 | 3 | 1.93 | 6.46
4 | Oc1ccc2c3c1O[C@H]1c4[nH]c5c(c4C[C@@]4(O)[C@@H](C2)N(CC2CC2)CC[C@]314)C[C@@]1(O)[C@H]2Cc3ccc(O)c4c3[C@@]1(CCN2CC1CC1)[C@H]5O4 | 475 | – | 110 | – | –
5 | C[C@]12CCCC[C@@]1(c1cccc(O)c1)CCN(CCCc1ccccc1)C2 (relative stereo) | 0.8 | 0.8 | 12 | 1.03 | 12.4
6 | C[C@]12CCCC[C@@]1(c1cccc(O)c1)CCN(CCc1ccccc1)C2 (relative stereo) | 0.3 | 0.84 | 7 | 2.84 | 18.9
7 | C[C@]12CC[C@@H](NC(=O)CCN3CCCCC3)C[C@@]1(c1cccc(O)c1)CCN(CCCc1ccccc1)C2 (relative stereo) | 154 | 41.7 | 46 | 0.27 | 12.3
8 | C[C@]12CC[C@@H](NC(=O)CCN3CCc4ccccc4C3)C[C@@]1(c1cccc(O)c1)CCN(CCCc1ccccc1)C2 (relative stereo) | 45 | 9.82 | 21 | 0.22 | 4.56
9 | C[C@]12CC[C@@H](NC(=O)c3cc4ccccc4s3)C[C@@]1(c1cccc(O)c1)CCN(CCCc1ccccc1)C2 (relative stereo) | 25 | 11.3 | 2 | 0.46 | 1.01
